The values below come from ChEMBL document CHEMBL5724914, “Linking interpersonal differences in gut microbiota composition and drug biotransformation activity” (2024).

The conditions of data set [1]: human gut metagenome, 24 h, 2 µM.
Data set [2] in a line: The drug is tested on WLS-170 corresponding to human gut metagenome with ENA study accession number: PRJEB37062 and ENA sample accession number: ERS12561762 for biotransformation under anaerobic condition. The drug concentrations were measured over 9 timepoints collected between 0 and 24 hours of incubation by liquid-chromatography-coupled mass spectrometry (LC–MS). As to conditions: 2 µM.

Data set [3] can be described thus: The drug is tested on Z-026 corresponding to metagenome with ENA study accession number: PRJEB37062 and ENA sample accession number: ERS12561825 for biotransformation under anaerobic condition. The drug concentrations were measured over 9 timepoints collected between 0 and 24 hours of incubation by liquid-chromatography-coupled mass spectrometry (LC–MS). As to conditions: 2 µM.

Data set [4] is described as follows: The drug is tested on Z-019 corresponding to rat gut metagenome with ENA study accession number: PRJEB37062 and ENA sample accession number: ERS12561818 for biotransformation under anaerobic condition. The drug concentrations were measured over 9 timepoints collected between 0 and 24 hours of incubation by liquid-chromatography-coupled mass spectrometry (LC–MS). As to conditions: 2 µM.

Data set [5] is described as follows: The drug is tested on Z-017 corresponding to mouse gut metagenome with ENA study accession number: PRJEB37062 and ENA sample accession number: ERS12561816 for biotransformation under anaerobic condition. The drug concentrations were measured over 9 timepoints collected between 0 and 24 hours of incubation by liquid-chromatography-coupled mass spectrometry (LC–MS). The note with it: 2 µM.

The conditions of data set [6]: human gut metagenome, 24 h, 2 µM. This is another data set of the same source.
The conditions of data set [7]: human gut metagenome, 24 h, 2 µM. The source holds these as a separate data set.
The nature of data set [8]: The drug is tested on WLS-027 corresponding to human gut metagenome with ENA study accession number: PRJEB37062 and ENA sample accession number: ERS12561744 for biotransformation under anaerobic condition. The drug concentrations were measured over 9 timepoints collected between 0 and 24 hours of incubation by liquid-chromatography-coupled mass spectrometry (LC–MS). The note with it: 2 µM.

A short description of data set [9]: The drug is tested on WLS-240 corresponding to human gut metagenome with ENA study accession number: PRJEB37062 and ENA sample accession number: ERS12561773 for biotransformation under anaerobic condition. The drug concentrations were measured over 9 timepoints collected between 0 and 24 hours of incubation by liquid-chromatography-coupled mass spectrometry (LC–MS). The note with it: 2 µM.

For data set [10] the following is noted: human gut metagenome, 24 h, 2 µM. The source holds these as a separate data set.
The nature of data set [11]: The drug is tested on Z-013 corresponding to rabbit gut metagenome with ENA study accession number: PRJEB37062 and ENA sample accession number: ERS12561813 for biotransformation under anaerobic condition. The drug concentrations were measured over 9 timepoints collected between 0 and 24 hours of incubation by liquid-chromatography-coupled mass spectrometry (LC–MS). As to conditions: 2 µM.

For data set [12] the following is noted: human gut metagenome, 24 h, 2 µM. This is another data set of the same source.
The conditions of data set [13]: human gut metagenome, 24 h, 2 µM. This is another data set of the same source.
Data set [14] is described as follows: The drug is tested on Z-006 corresponding to mouse gut metagenome with ENA study accession number: PRJEB37062 and ENA sample accession number: ERS12561806 for biotransformation under anaerobic condition. The drug concentrations were measured over 9 timepoints collected between 0 and 24 hours of incubation by liquid-chromatography-coupled mass spectrometry (LC–MS). The note with it: 2 µM.

The conditions of data set [15]: human gut metagenome, 24 h, 2 µM. This is another data set of the same source.
Data set [16] in a line: The drug is tested on WLS-077 corresponding to human gut metagenome with ENA study accession number: PRJEB37062 and ENA sample accession number: ERS12561750 for biotransformation under anaerobic condition. The drug concentrations were measured over 9 timepoints collected between 0 and 24 hours of incubation by liquid-chromatography-coupled mass spectrometry (LC–MS). The note with it: 2 µM.

For data set [17] the following is noted: human gut metagenome, 24 h, 2 µM. The source holds these as a separate data set.
For data set [18] the following is noted: human gut metagenome, 24 h, 2 µM. This is another data set of the same source.
The conditions of data set [19]: human gut metagenome, 24 h, 2 µM. The source holds these as a separate data set.
Data set [20] can be described thus: The drug is tested on Z-014 corresponding to rat gut metagenome with ENA study accession number: PRJEB37062 and ENA sample accession number: ERS12561814 for biotransformation under anaerobic condition. The drug concentrations were measured over 9 timepoints collected between 0 and 24 hours of incubation by liquid-chromatography-coupled mass spectrometry (LC–MS). The note with it: 2 µM.
Further: call rule not given here.

`Cc1ccc(S(=O)(=O)NC(=O)NN2CC3CCCC3C2)cc1` (stereo not given) [GLICLAZIDE]: the “Bacterial Biotransformation” value in data set [1] is reported as “Compound metabolized”; in data set [2] it was “Compound metabolized”; in data set [3] it was “Compound metabolized”; in data set [4] it was “Compound NOT metabolized”; in data set [5], “Compound NOT metabolized”; in [6], “Compound metabolized”. Besides, the “Bacterial Biotransformation” value in [7] is given as “Compound metabolized”; in [8] it was “Compound metabolized”; in data set [9], “Compound metabolized”; in data set [10], “Compound NOT metabolized”; in [11] it was “Compound NOT metabolized”; in [12] it was “Compound metabolized”. Besides, the “Bacterial Biotransformation” value in [13], in data set [14], in [15], in data set [16], in data set [17] and in data set [18] was “Compound metabolized” throughout. The figures for the “Bacterial Biotransformation” value in data set [19] and in [20] were “Compound metabolized” and “Compound NOT metabolized”, respectively.

Consider `COC1=CC(=O)C[C@@H](C)[C@]12Oc1c(Cl)c(OC)cc(OC)c1C2=O` [GRISEOFULVIN], for which the “Bacterial Biotransformation” value in data set [1] was “Compound metabolized”; in [2], “Compound metabolized”; in [3] it was “Compound metabolized”; in [4] it was “Compound NOT metabolized”; in [5], “Compound metabolized”; in data set [6], “Compound metabolized”. In addition, the “Bacterial Biotransformation” value in data set [7] is listed as “Compound metabolized”; in [8], “Compound metabolized”; in data set [9], “Compound metabolized”; in data set [10], “Compound NOT metabolized”; in [11] it was “Compound metabolized”; in [12], “Compound metabolized”. Besides, the “Bacterial Biotransformation” value is recorded as “Compound metabolized” in data set [13]; “Compound metabolized” in [14]; “Compound NOT metabolized” in data set [15]; “Compound metabolized” in [16]; “Compound metabolized” in data set [17]; “Compound metabolized” in [18]. Moreover, the “Bacterial Biotransformation” value in data set [19] and in [20] was “Compound metabolized” each time.

With `N#Cc1ccc(C(c2ccc(C#N)cc2)n2cncn2)cc1` [LETROZOLE], the “Bacterial Biotransformation” value in data set [1] is reported as “Compound NOT metabolized”; in [2], “Compound NOT metabolized”; in data set [3] it was “Compound metabolized”; in [4], “Compound NOT metabolized”; in data set [5], “Compound NOT metabolized”; in [6], “Compound NOT metabolized”. The “Bacterial Biotransformation” value in [7], in data set [8], in data set [9], in data set [10], in data set [11] and in data set [12] was “Compound NOT metabolized” each time. The “Bacterial Biotransformation” value in data set [13], in data set [14], in [15], in [16], in data set [17] and in [18] was “Compound NOT metabolized” throughout. Moreover, the “Bacterial Biotransformation” value in data set [19] and in [20] was “Compound NOT metabolized” each time.

Regarding `CC(Oc1c(Cl)cccc1Cl)C1=NCCN1` (stereo not given) [LOFEXIDINE], the “Bacterial Biotransformation” value in [1] is given as “Compound NOT metabolized”; in data set [2] it was “Compound metabolized”; in [3] it was “Compound NOT metabolized”; in data set [4], “Compound NOT metabolized”; in data set [5], “Compound NOT metabolized”; in data set [6], “Compound metabolized”. In addition, the “Bacterial Biotransformation” value in data set [7] was “Compound metabolized”; in data set [8] it was “Compound metabolized”; in data set [9], “Compound metabolized”; in data set [10], “Compound NOT metabolized”; in [11] it was “Compound NOT metabolized”; in data set [12], “Compound NOT metabolized”. In addition, the “Bacterial Biotransformation” value in data set [13] is “Compound NOT metabolized”; in data set [14], “Compound NOT metabolized”; in [15] it was “Compound NOT metabolized”; in data set [16], “Compound NOT metabolized”; in data set [17], “Compound metabolized”; in data set [18], “Compound metabolized”. The “Bacterial Biotransformation” value in data set [19] is on record as “Compound metabolized”; in data set [20] it was “Compound NOT metabolized”.

As to `CN(C)C(=O)C(CCN1CCC(O)(c2ccc(Cl)cc2)CC1)(c1ccccc1)c1ccccc1` [LOPERAMIDE], the “Bacterial Biotransformation” value is reported as “Compound metabolized” in data set [1]; “Compound metabolized” in [2]; “Compound NOT metabolized” in data set [3]; “Compound NOT metabolized” in data set [4]; “Compound NOT metabolized” in [5]; “Compound metabolized” in data set [6]. In addition, the “Bacterial Biotransformation” value in [7] was “Compound metabolized”; in [8], “Compound metabolized”; in data set [9], “Compound metabolized”; in data set [10], “Compound NOT metabolized”; in data set [11], “Compound metabolized”; in [12], “Compound metabolized”. Also, the “Bacterial Biotransformation” value in [13], in data set [14], in [15], in data set [16], in data set [17] and in data set [18] was “Compound metabolized” each time. For the same compound, the “Bacterial Biotransformation” value in [19] and in [20] was “Compound metabolized” each time.

For `CCCCc1nc(Cl)c(CO)n1Cc1ccc(-c2ccccc2-c2nn[nH]n2)cc1` [LOSARTAN], the “Bacterial Biotransformation” value was “Compound metabolized” in data set [1]; “Compound metabolized” in data set [2]; “Compound NOT metabolized” in [3]; “Compound NOT metabolized” in data set [4]; “Compound NOT metabolized” in data set [5]; “Compound metabolized” in data set [6]. Moreover, the “Bacterial Biotransformation” value was “Compound metabolized” in [7]; “Compound metabolized” in data set [8]; “Compound metabolized” in [9]; “Compound NOT metabolized” in data set [10]; “Compound NOT metabolized” in data set [11]; “Compound metabolized” in data set [12]. Also, the “Bacterial Biotransformation” value is “Compound metabolized” in data set [13]; “Compound NOT metabolized” in data set [14]; “Compound metabolized” in [15]; “Compound NOT metabolized” in data set [16]; “Compound metabolized” in [17]; “Compound metabolized” in data set [18]. In addition, the “Bacterial Biotransformation” value is reported as “Compound metabolized” in data set [19] and “Compound NOT metabolized” in [20].
